The record followed here is patent US20070197658A1, “Polyamines and their use as antibacterial and sensitizing agents” (priority 2006, published 2007).

What is called pKd is the negative decadic logarithm of the Kd, by convention in mol/L.

The subject of series [1] is E. coli ATCC 9637. Nature of the series: microbe, parasite or virus in culture. Here is the method:
(§1) An equal volume of a suspension of either E. coli ATCC 9637 (FIG. 6A) or S. aureus ATCC 13709 (FIG. 6B) in 2× Mueller-Hinton broth was added using an automated liquid dispensing system to a 384 well plate, and bacterial growth was measured by absorptimetry as described in Materials and Methods.
(§2) In this example, E. coli strain 9637 and S. aureus strain 13709 were procured from ATCC (Manassas, Va.). For IM permeability assays, E. coli ML-35 (ATCC 43827), a lactose permease-deficient strain with constitutive cytoplasmic β-galactosidase activity was used (26). Calcium chloride transformation of E. coli ML-35 was performed using the plasmid vector pBR322 (6), encoding tetracycline and ampicillin resistance genes (Promega, Madison, Wis.). The transformed strain, E. coli ML-35p, selected by ampicillin resistance, was utilized for the OM permeabilization assay. E. coli ML-35p was maintained on trypticase soy agar plates with 50 μg/ml of ampicillin.
(§3) Minimum inhibitory concentrations of the acylpolyamines were determined by broth microdilution method (1) as per NCCLS guidelines. Mid-log phase Mueller-Hinton broth (MHB; non-cation supplemented) cultures of organisms (40 μl; OD600nm adjusted to 0.5 AU, and diluted ten-fold) were added to equal volumes of two-fold serially diluted acylpolyamines in a 384-well microtiter plate with the help of a Biotek Precision 2000 automated microplate pipetting system. The MICs of rifampicin, polymyxin B (PMB), polymyxin B nonapeptide (PMBN), naphthylacetyl spermine trihydrochloride and methoctramine tetrahydrochloride (Sigma, St. Louis, Mo.) were included as reference compounds for comparison of activity. The microtiter plates were sealed and incubated overnight at 37° C. The plates were read at an absorbance of 600 nm. The lowest concentration of an agent inhibiting growth of the organisms was recorded as the MIC.

The subject of a further series is S. aureus ATCC 13709. Nature of the series: microbe, parasite or virus in culture. The protocol:
as §1, §2, §3

For series [2], the system named is E. coli ATCC 9637. Nature of the series: Effect of acylpolyamines on MIC of rifampicin (sensitization). On the set-up: key to Sensitization to Rifampin: fold sensitization = MIC rifampicin alone / MIC with 10 μM compound. Particulars: for Sensitization to Rifampin: E. coli strain 9637 preincubated with 10 μM of compound, MIC of rifampicin. In kind it is cell-based, Escherichia coli. Here is the method:
E. coli ATCC 9637 was seeded in MH broth in chequerboard format in a 384-well plate containing a constant concentration of compound and varying doses of rifampicin. Bacterial growth was monitored by turbidimetry at 600 nm. PMBN and melittin were used as positive controls. Wells containing no test-compound served as negative control. […] Fold sensitization was calculated as MICRifampicin alone/MICRifampicin+10μM Compound.
Perturbation of the outer membrane permeability barrier greatly sensitizes Gram negative organisms to otherwise impermeable hydrophobic solutes, rifampicin being a classic example To determine the effect of acylpolyamines on the MIC of hydrophobic antibiotic, rifampicin, E. coli strain 9637 was used. Overnight cultures of E. coli grown in MHB preincubated with 10 μM of acylpolyamines were added to serially diluted rifampicin in a 384-well microtiter plate. After incubation at 37° C. overnight, the MIC was determined. Controls included PMBN and melittin (positive) and rifampicin alone (negative). All experiments were run in triplicate.

Series [3] relates to LPS-induced nitric oxide production in murine macrophages. Nature of the series: NO inhibition, compound solubilized in DMSO or in HSA. In kind it is cell-based, mouse. Particulars: DMSO vs HSA solubilization (FIG. 7C).
Another series deals with human serum albumin (Homo sapiens, UniProt P02768). Description: biochemical. Particulars: KD for HSA, isothermal titration calorimetry; single-site model. (In general: In ITC the heat of successive injections is recorded.)
In the next series the test system is CF-1 mice. Particulars: preliminary. Here is the method:
Detailed biophysical studies on the characterization of the binding site on albumin, stoichiometry, and dependence of binding affinity on mono-versus bis-acylation and acyl chain length will be published elsewhere.
Clinical signs of acute toxicity were monitored for 48 h following a single injection. In subacute studies, 100 μg of 4e was injected daily in the subcutaneous tissue of the flank region, the sites being alternated every day, for a duration of 15 days. The animals were monitored daily for signs of local irritation, weight loss, and food consumption.

For series [4] the following is noted: 500 μM in 50 mM Tris buffer, pH 7.4, 5% DMSO, 25° C. The protocol:
Charged, amphipathic molecules are surface-active, and can be cytolytic to mammalian cells. […] Samples were at 500 μM concentration in 50 mM Tris buffer, pH 7.4 containing 5% DMSO. The instrument was calibrated with water at 25° C. (72 mN/m) and surface tension values were recorded over a range of bubble surface ages from 100 to 1500 ms at 25° C.

In the next series the test system is human whole blood. Description: Hemolysis in fresh whole human blood (released hemoglobin, 570 nm). The series is classed as cell-based. Particulars: fresh undiluted EDTA human blood, 37° C., 30 min. The protocol:
Melittin was used as a positive control.
1:233-245 (2004). Erythrocyte damage was measured using two different techniques. […] Biophys. Acta 1123:269-274 (1992).

Series [5] has as its system E. coli ML-35p (OM) / E. coli ML-35 (IM). The series is classed as cell-based, Escherichia coli. Particulars: nitrocefin and ONPG hydrolysis.
Description: OM permeabilizing activity was determined using E. coli ML-35p (parent i^− z^+ y^− ATCC 43827 transformed with pBR322 vector encoding periplasmic β-lactamase); the leakage of periplasmic β-lactamase activity was quantified using nitrocefin as a chromogenic substrate. IM permeabilizing activity was determined using E. coli ML-35 using o-nitrophenyl-β-D-galactopyranoside as the substrate to determine the β-galactosidase activity. In all experiments, PMB, PMBN, and melittin were used as reference compounds.
Nitrocefin (Calbiochem, San Diego, Calif.) was used for the determination of periplasmic β-lactamase activity since PADAC has been reported to be frequently insensitive to β-lactamase activity in clinically relevant strains of Staphylococcus. […] Harvested mid-log phase cultures of E. coli ML-35p (OD600nm adjusted to 0.5 AU) grown in trypticase soy broth were washed thrice with normal saline (0.9%). Nitrocefin was added to a final concentration of 50 μg/ml to the washed bacterial suspension, which was then added to the serially diluted compounds in a 384-well microtiter plate as described earlier. […] After various times of incubation at 37° C., β-lactamase activity was measured spectrophotometrically at 486 nm using an automated Spectramax M2 instrument (Molecular Devices, Sunnyvale, Calif.).
The IM permeability was measured using o-nitrophenyl-β-D-galactopyranoside (“ONPG”; Sigma, St. Louis, Mo.) as the substrate to determine the β-galactosidase activity. […] Washed cultures of E coli ML-35 mixed with 1.5 mM of ONPG in normal saline (0.9%) were added to serially diluted compounds in a 384-well microtiter plate. PMBN and melittin were used as the controls. The production of o-nitrophenol was quantified absorptimetrically at 420 nm after an incubation period of 1 hour at 37° C.
OM and IM permeability were determined respectively from dose-response curves of nitrocefin and ONPG hydrolysis rates as described in Lehrer et al., Concurrent assessment of inner and outer membrane permeabilization and bacteriolysis in E. coli by multiple-wavelength spectrophotometry, J. Immunol.
[6] abbreviates: E. coli ATCC 9637, Mueller-Hinton broth, overnight 37° C.
The mark [7] stands for this setting: S. aureus ATCC 13709, Mueller-Hinton broth, overnight 37° C.

pKd: −log10 of the molar value. “And” between values parts separate entries of the source, which are not always exact repeats. Equal values may be shown once.

Sequence of human serum albumin (P02768 25-609): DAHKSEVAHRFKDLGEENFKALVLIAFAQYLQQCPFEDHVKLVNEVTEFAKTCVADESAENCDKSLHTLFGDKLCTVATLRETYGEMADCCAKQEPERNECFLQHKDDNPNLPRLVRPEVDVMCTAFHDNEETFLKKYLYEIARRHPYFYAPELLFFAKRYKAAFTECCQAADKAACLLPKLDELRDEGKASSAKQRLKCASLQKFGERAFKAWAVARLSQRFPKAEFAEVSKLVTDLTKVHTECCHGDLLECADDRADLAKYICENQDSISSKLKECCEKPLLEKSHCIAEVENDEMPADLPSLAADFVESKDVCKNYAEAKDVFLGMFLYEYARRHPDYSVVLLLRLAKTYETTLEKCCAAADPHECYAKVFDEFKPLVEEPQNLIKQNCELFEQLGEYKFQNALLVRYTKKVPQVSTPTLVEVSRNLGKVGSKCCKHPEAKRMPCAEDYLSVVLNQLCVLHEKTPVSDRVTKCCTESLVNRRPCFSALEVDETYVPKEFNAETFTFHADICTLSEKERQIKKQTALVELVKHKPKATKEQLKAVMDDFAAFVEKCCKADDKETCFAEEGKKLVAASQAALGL

Regarding `CCCCCCCCCCCCCCC(=O)NCCCNCCCNCCCCNCCCN` [Compound 4e], the MIC in the series on E. coli ATCC 9637 [1] (Escherichia coli, ATCC9637) is 31.2 µM and 29.3 µg/mL; against S. aureus ATCC 13709 (Staphylococcus aureus, ATCC13709) it was 15.6 µM and 14.6 µg/mL. The “Sensitization to Rifampin” value in the series with E. coli ATCC 9637 [2] was 7.81. In addition, in series [3], the “potency of NO inhibition solubilized in DMSO or in HSA” value is reported as “identical potency”. In addition, the pKd at human serum albumin was 5.70 and ~5.70.

As for `CCCCCCCCC(=O)NCCCNCCCNCCCCNCCCNCCCNC(=O)CCCCCCCC.O=C(O)C(F)(F)F.O=C(O)C(F)(F)F.O=C(O)C(F)(F)F.O=C(O)C(F)(F)F` [Compound 8a], the MIC against E. coli ATCC 9637 [1] (setting [6]) was 31.25 μM and 32.9 μg/ml; in the series on S. aureus ATCC 13709 (setting [7]), 15.6 μM and 16.4 μg/ml. Besides, in the series on E. coli ATCC 9637 [2] (10 μM compound, E. coli ATCC 9637), the “sensitization activity (MIC rifampicin alone / MIC rifampicin + 10 μM compound)” value amounted to 4096 fold. For the same molecule, in the series with E. coli ATCC 9637 [2], the “Sensitization to Rifampin” value was 0.00381. In the series on CF-1 mice (100 μg/mouse, subcutaneously, for 15 days), the subacute toxicity result is “not revealed any detectable toxicity”. In addition, the acute toxicity entry in the series with CF-1 mice (up to 1 mg/mouse, one dose subcutaneously) is recorded as “not revealed any detectable toxicity”. The surface activity entry in series [4] is given as “considerably surface active”.

With `CC[C@H](C)[C@H](NC(=O)CN)C(=O)NCC(=O)N[C@@H](C)C(=O)N[C@H](C(=O)N[C@@H](CC(C)C)C(=O)N[C@@H](CCCCN)C(=O)N[C@H](C(=O)N[C@@H](CC(C)C)C(=O)N[C@H](C(=O)N[C@H](C(=O)NCC(=O)N[C@@H](CC(C)C)C(=O)N1CCC[C@H]1C(=O)N[C@@H](C)C(=O)N[C@@H](CC(C)C)C(=O)N[C@H](C(=O)N[C@@H](CO)C(=O)N[C@@H](Cc1c[nH]c2ccccc12)C(=O)N[C@H](C(=O)N[C@@H](CCCCN)C(=O)N[C@@H](CCCNC(=N)N)C(=O)N[C@@H](CCCCN)C(=O)N[C@@H](CCCNC(=N)N)C(=O)N[C@@H](CCC(N)=O)C(=O)N[C@@H](CCC(N)=O)C(N)=O)[C@@H](C)CC)[C@@H](C)CC)[C@@H](C)O)[C@@H](C)O)C(C)C)C(C)C` [Melittin, melittin, reference compound], the MIC against E. coli ATCC 9637 [1] (setting [6]) is 175 μM and 498.1 μg/ml; with S. aureus ATCC 13709 (setting [7]), 5.5 μM and 15.6 μg/ml. Besides, the “hemolysis in human whole blood” value with human whole blood is given as “caused hemolysis at low micromolar concentrations”. In addition, in series [5], the “membrane-permeabilizing activity (OM and IM)” value is “potently membrane-permeabilizing”.
